Assay results: patent US6063780A, “Method of treating a tumor” (priority 1998, dated 2000)
Read-outs that look alike come from different tables or passages of the source.

Tests used:
[1] = cited from earlier work
MV-522 Human Lung Tumor [2] = assay: Carboplatin, Paclitaxel and Tirapazamine vs MV-522 Human Lung Tumor Xenograft (confirming study, Example 3); conditions: for Final Tumor Wt. (Mean ± SEM) / Weight Change (Day 6): n=8; for Mean % Tumor Shrinkage: mice with partial shrinkage; for antitumor efficacy (in words): carboplatin experiment / general statement
Experimental: (§1) Nude mice weighing approximately 20 g were implanted s.c. by trocar with fragments of MV-522 human lung carcinomas harvested from s.c. growing tumors in nude mice hosts. When tumors were approximately 5 mm×5 mm in size (usually ten days after inoculation), the animals were pair-matched into treatment and control groups. Each group contained 8 tumored mice, each of which was ear-tagged and followed individually throughout the experiment. Tirapazamine was administered three hours prior to oxaliplatin, carboplatin and paclitaxel. The route and schedule for all drugs was i.p., qdxl.
(§2) Mice were weighed twice weekly, and tumor measurements were taken by calipers twice weekly, starting on Day 1. These tumor measurements were converted to mg tumor weight by a well-known formula, L×W^2 /2. The experiment was terminated when control tumors reached a size of 1 gram. Upon termination, all mice were weighed, sacrificed, and their tumors excised. Tumors were weighed, and the mean tumor weight per group was calculated.
(§3) With these agents, the final weight of a given tumor was subtracted from its own weight at the start of treatment on Day 1. This difference divided by the initial tumor weight is the % shrinkage. A mean % tumor shrinkage can be calculated from data from the mice in a group that experienced tumor regressions. If the MV-522 tumor completely disappeared in a mouse, this was considered a complete regression or complete tumor shrinkage.
Paclitaxel and tirapazamine were administered i.p. as a single bolus at doses of 20 mg/kg (2/3 MTD) and 70 mg/kg (MTD) respectively. Carboplatin was given as a single i.p. bolus at doses of 100 mg/kg (MTD) or 50 mg/kg (1/2 MTD).

MV-522 Human Lung Tumor [3] = assay: Oxaliplatin, Paclitaxel and Tirapazamine vs MV-522 Human Lung Tumor Xenograft (Example 4); conditions: for % Tumor Growth Inhibition (TGI) / Actual Tumor Wt. (Mean ± SEM) / Weight Change (Day 6) / # of Toxic Deaths / Mice with Complete Shrinkage / Mice with partial Tumor Shrinkage: oxaliplatin 15 mg/kg (MTD), paclitaxel 20 mg/kg, tirapazamine 70 mg/kg, i.p., qdx1; for % Tumor Growth Inhibition (TGI): in the animals without shrinkage; for Actual Tumor Wt. (Mean ± SEM) / Weight Change (Day 6): n=8; for # of Toxic Deaths / Mice with Complete Shrinkage / Mice with partial Tumor Shrinkage: number of 8 mice; for antitumor efficacy (in words): oxaliplatin experiment
Experimental: as §1, §2, §3
Paclitaxel and tirapazamine were given at doses of 20 mg/kg and 70 mg/kg respectively (i.p.; qd×1).

[4] = tested on: mouse SCCVII and other tumors; conditions: multiple injections in conjunction with fractionated irradiation; cited from earlier work
[5] = tested on: FSaIIC Murine Fibrosarcoma; conditions: cited from earlier work
[6] = carboplatin 50 mg/kg (1/2 MTD), paclitaxel 20 mg/kg, tirapazamine 70 mg/kg where combined, i.p., qdx1, in the animals without shrinkage
[7] = carboplatin 50 mg/kg (1/2 MTD), paclitaxel 20 mg/kg, tirapazamine 70 mg/kg where combined, i.p., qdx1
[8] = carboplatin 50 mg/kg (1/2 MTD), paclitaxel 20 mg/kg, tirapazamine 70 mg/kg where combined, i.p., qdx1, number of 8 mice
[9] = carboplatin 100 mg/kg (MTD), paclitaxel 20 mg/kg, tirapazamine 70 mg/kg where combined, i.p., qdx1, in the animals without shrinkage
[10] = carboplatin 100 mg/kg (MTD), paclitaxel 20 mg/kg, tirapazamine 70 mg/kg where combined, i.p., qdx1
[11] = carboplatin 100 mg/kg (MTD), paclitaxel 20 mg/kg, tirapazamine 70 mg/kg where combined, i.p., qdx1, number of 8 mice
[12] = groups without carboplatin, paclitaxel 20 mg/kg, tirapazamine 70 mg/kg, i.p., qdx1
[13] = groups without carboplatin, paclitaxel 20 mg/kg, tirapazamine 70 mg/kg, i.p., qdx1, number of 8 mice

For `N.N.O=C([O-])C1(C(=O)[O-])CCC1.[Pt+2]` [Carboplatin, platinum, diammine [1,1-cyclobutane-dicarboxylato(2)-0,0']-, (SP-4-2)], the “pH of a 1% solution” value ([1]; 1% solution) is given as 5-7, the rate of aquation ([1]; compared with cisplatin) is given as “occurs at a slower rate than in the case of cisplatin” and the solubility in water ([1]; water) is given as “approximately 14 mg/mL”. The “% Tumor Growth Inhibition (TGI)” value (MV-522 Human Lung Tumor [2]; [6]) was 22.5%, the “Final Tumor Wt. (Mean ± SEM)” value (MV-522 Human Lung Tumor [2]; [7]) was 698.1 ± 160.5 mg and the “Weight Change (Day 6)” value (MV-522 Human Lung Tumor [2]; [7]) was -1.7%. For the same compound, the “# of Toxic Deaths” value (MV-522 Human Lung Tumor [2]; [8]) was 0, the “Mice with Complete Shrinkage” value (MV-522 Human Lung Tumor [2]; [8]) was 0 and the “Mice with partial Tumor Shrinkage” value (MV-522 Human Lung Tumor [2]; [8]) was 0. The “% Tumor Growth Inhibition (TGI)” value (MV-522 Human Lung Tumor [2]; [9]) was 39.7%, the “% Tumor Growth Inhibition (TGI)” value (MV-522 Human Lung Tumor [2]; carboplatin 100 mg/kg (MTD), paclitaxel 20 mg/kg, tirapazamine 70 mg/kg where combined, i.p., qdx1, in the animals without shrinkage, listed as carboplatin) was “approximately 40%” and the “Final Tumor Wt. (Mean ± SEM)” value (MV-522 Human Lung Tumor [2]; [10]) was 556.5 ± 129.8 mg. The “Weight Change (Day 6)” value (MV-522 Human Lung Tumor [2]; [10]) was -1.5%, the “# of Toxic Deaths” value (MV-522 Human Lung Tumor [2]; [11]) was 0 and the “Mice with Complete Shrinkage” value (MV-522 Human Lung Tumor [2]; [11]) was 0. The “Mice with partial Tumor Shrinkage” value (MV-522 Human Lung Tumor [2]; [11]) was 0.
In the case of `O=C1[O][Pt]2([NH][C@@H]3CCCC[C@H]3[NH]2)[O]C1=O` (relative stereo) [Oxaliplatin, cis-oxalato(trans-1-1,2-cyclohexanediamine) platinum (II)], the “% Tumor Growth Inhibition (TGI)” value (MV-522 Human Lung Tumor [3]) is reported as 8.2%, the “Actual Tumor Wt. (Mean ± SEM)” value (MV-522 Human Lung Tumor [3]) is reported as 731.5 ± 62.6 mg and the “Weight Change (Day 6)” value (MV-522 Human Lung Tumor [3]) is reported as “+5.2%”. The “# of Toxic Deaths” value (MV-522 Human Lung Tumor [3]) was 0, the “Mice with Complete Shrinkage” value (MV-522 Human Lung Tumor [3]) was 0 and the “Mice with partial Tumor Shrinkage” value (MV-522 Human Lung Tumor [3]) was 0. For the same compound, the “antitumor efficacy (in words)” value (MV-522 Human Lung Tumor [3]) was “not active”.
With Paclitaxel + Carboplatin the “% Tumor Growth Inhibition (TGI)” value (MV-522 Human Lung Tumor [2]; [6]) was 49.8%, the “Final Tumor Wt. (Mean ± SEM)” value (MV-522 Human Lung Tumor [2]; [7]) was 474.0 ± 93.5 mg and the “Weight Change (Day 6)” value (MV-522 Human Lung Tumor [2]; [7]) was “+1.7%”. For the same compound, the “# of Toxic Deaths” value (MV-522 Human Lung Tumor [2]; [8]) was 0, the “Mice with Complete Shrinkage” value (MV-522 Human Lung Tumor [2]; [8]) was 0 and the “Mice with partial Tumor Shrinkage” value (MV-522 Human Lung Tumor [2]; [8]) was 0. For the same compound, the “% Tumor Growth Inhibition (TGI)” value (MV-522 Human Lung Tumor [2]; [9]) was 68.8%, the “Mean % Tumor Shrinkage” value (MV-522 Human Lung Tumor [2]; [10]) was 53.0% and the “Mean % Tumor Shrinkage” value (MV-522 Human Lung Tumor [2]; carboplatin 100 mg/kg (MTD), paclitaxel 20 mg/kg, tirapazamine 70 mg/kg where combined, i.p., qdx1, listed as paclitaxel-high dose carboplatin) was 53%. For the same compound, the “Final Tumor Wt. (Mean ± SEM)” value (MV-522 Human Lung Tumor [2]; [10]) was 241.4 ± 70.3 mg, the “Weight Change (Day 6)” value (MV-522 Human Lung Tumor [2]; [10]) was -1.3% and the “# of Toxic Deaths” value (MV-522 Human Lung Tumor [2]; [11]) was 0. The “Mice with Complete Shrinkage” value (MV-522 Human Lung Tumor [2]; [11]) was 0, the “Mice with partial Tumor Shrinkage” value (MV-522 Human Lung Tumor [2]; [11]) was 2 and the “Mice with partial Tumor Shrinkage” value (MV-522 Human Lung Tumor [2]; carboplatin 100 mg/kg (MTD), paclitaxel 20 mg/kg, tirapazamine 70 mg/kg where combined, i.p., qdx1, number of 8 mice, listed as paclitaxel-high dose carboplatin) was “two”. The “antitumor efficacy (in words)” value (MV-522 Human Lung Tumor [2]) was “even more effective”.
With `Nc1n[n+]([O-])c2ccccc2[n+]1[O-]` [Tirapazamine, 3-amino-1,2,4-benzotriazine 1,4-dioxide] the “antitumor efficacy (in words)” value (MV-522 Human Lung Tumor [2]) was “not active as a single agent”, the “% Tumor Growth Inhibition (TGI)” value (MV-522 Human Lung Tumor [2]; [12]) was 5.7% and the “Final Tumor Wt. (Mean ± SEM)” value (MV-522 Human Lung Tumor [2]; [12]) was 835.3 ± 111.2 mg. For the same compound, the “Weight Change (Day 6)” value (MV-522 Human Lung Tumor [2]; [12]) was -1.7%, the “# of Toxic Deaths” value (MV-522 Human Lung Tumor [2]; [13]) was 0 and the “Mice with Complete Shrinkage” value (MV-522 Human Lung Tumor [2]; ip, 70 mg/kg) was 0. The “Mice with partial Tumor Shrinkage” value (MV-522 Human Lung Tumor [2]; ip, 70 mg/kg) was 0, the “tumor cell kill with fractionated irradiation” value [4] was “kills hypoxic cells, increases tumor cell kill while sparing normal tissue” and the “dose enhancement / cytotoxic effect in combination” value ([5]; given just before single-dose cyclophosphamide, carmustine or melphalan) was “marked dose enhancement leading to synergistic cytotoxic effects on tumor cells”. For the same compound, the “dose enhancement / cytotoxic effect in combination” value ([5]; given just prior to single-dose cisplatin) was “additive effect, except at the highest dose level of cisplatin”, the “% Tumor Growth Inhibition (TGI)” value (MV-522 Human Lung Tumor [3]) was 2.5% and the “Actual Tumor Wt. (Mean ± SEM)” value (MV-522 Human Lung Tumor [3]) was 769.1 ± 73.0 mg. The “Weight Change (Day 6)” value (MV-522 Human Lung Tumor [3]) was -6.9%, the “# of Toxic Deaths” value (MV-522 Human Lung Tumor [3]) was 0 and the “Mice with Complete Shrinkage” value (MV-522 Human Lung Tumor [3]) was 0. The “Mice with partial Tumor Shrinkage” value (MV-522 Human Lung Tumor [3]) was 0 and the “antitumor efficacy (in words)” value (MV-522 Human Lung Tumor [3]) was “not active”.
In the case of `CC(=O)OC1C(=O)C2(C)C(O)CC3OCC3(OC(C)=O)C2C(OC(=O)c2ccccc2)C2(O)CC(OC(=O)C(O)C(NC(=O)c3ccccc3)c3ccccc3)C(C)=C1C2(C)C` [Paclitaxel, 5β,20-Epoxy-1,2α,4,7β,10β,13α-hexahydroxytax-11-en-9-one 4,10-diacetate 2-benzoate 13-ester with (2R, 3S)-N-benzoyl-3-phenylisoserine], the “solubility in water (in words)” value ([1]; water) is given as “insoluble in water”, the “Final Tumor Wt. (Mean ± SEM)” value (MV-522 Human Lung Tumor [2]; [12]) is given as 552.9 ± 68.6 mg and the “Weight Change (Day 6)” value (MV-522 Human Lung Tumor [2]; [12]) is given as “+0.4%”. The “# of Toxic Deaths” value (MV-522 Human Lung Tumor [2]; [13]) was 1, the “Mice with Complete Shrinkage” value (MV-522 Human Lung Tumor [2]; [13]) was 0 and the “Mice with partial Tumor Shrinkage” value (MV-522 Human Lung Tumor [2]; [13]) was 0. The “# of Toxic Deaths” value (MV-522 Human Lung Tumor [2]; groups without carboplatin, paclitaxel 20 mg/kg, tirapazamine 70 mg/kg, i.p., qdx1, number of 8 mice, listed as paclitaxel) was “one toxic death”, the “% Tumor Growth Inhibition (TGI)” value (MV-522 Human Lung Tumor [3]) was 30.9% and the “Actual Tumor Wt. (Mean ± SEM)” value (MV-522 Human Lung Tumor [3]) was 570.5 mg. The “Weight Change (Day 6)” value (MV-522 Human Lung Tumor [3]) was “+0.9%”, the “# of Toxic Deaths” value (MV-522 Human Lung Tumor [3]) was 1 and the “Mice with Complete Shrinkage” value (MV-522 Human Lung Tumor [3]) was 0. For the same compound, the “Mice with partial Tumor Shrinkage” value (MV-522 Human Lung Tumor [3]) was 0.
